This note sets out measurements from patent US8871741B2, “Inhibition of TNF-α induced activation of NFKB by pentosan polysulfate” (Icahn School of Medicine at Mount Sinai, priority 2010, dated 2014).

One data set relates to WHHL rabbits. The conditions noted are these: rabbit, in vivo, po.
The subject of a further data set is MMP-2/MMP-9. Nature of the data set: Net MMP activity in aortic extracts, synthetic colorimetric substrate. The conditions noted are these: aortic arch extracts, WHHL rabbits treated with PPS; P<0.05. It counts as in vivo, rabbit. The method, then:
(§1) MMP activity in aortic extracts and conditioned media from monocytes was assessed, as previously described (Jacot T A, et al., Lab Invest. 1996; 75:791-79). Briefly, aortic segments were homogenized and extracted in RIPA buffer (25 mM Tris, pH 7.4, 150 mM KCl, 5 mM EDTA, 1% Nonidet P-40, 0.5% sodium deoxycholate, and 0.1% SDS). Insoluble material was precipitated by centrifugation, and soluble extracts were collected and stored at −20° C. for further analysis. For in vitro experiments, cell supernatants were centrifuged to remove cellular debris, and diluted appropriately to normalize for cell number. Aortic extracts and conditioned media were then mixed with sample buffer (1% SDS, 0.08 M Tris pH 6.8, 4% glycerol, and 0.006% bromophenol blue), and loaded onto a 10% gelatin polyacrylamide gel, and processed as described (Jacot T A, et al., Lab Invest. 1996; 75:791-79). For reverse zymography, samples were loaded onto a 15% gelatin polyacrylamide gel containing 0.5% porcine gelatin and 6 μg recombinant gelatinase A, and processed as described (Elliot S J, et al., J Am Soc Nephrol. 1999; 10: 62-68).
MMP-2/MMP-9 net activity in aortic extracts was evaluated by using a synthetic colorimetric substrate [Ac-Pro-Leu-Gly-(2-mercapto-4-methylpentanoyl)-Leu-Gly-Oet; Calbiochem, Cambridge, Mass.], according to the manufacturer's directions.

Data set [1] relates to phosphorylated NF-κB (p65 (Ser276)). The data set is described as follows: Immunostaining for nuclear phosphorylated NF-κB in kidney. In kind it is in vivo, mouse. Conditions: PPS treated 22 month-old diabetic kidney. An excerpt:
Paraffin sections from non-diabetic and diabetic mice were deparaffinized prior to staining for apoptosis, makers for inflammation such as macrophages (F4/80, 1:100, Caltag Laboratories, Burlingame, Calif.) and phosphorylated NF-κB (p65 (Ser276), 1:25, Cell Signaling Technology, Inc, Danvers, Mass.), markers for oxidative stress, i.e., nitrotyrosine (1:140, Upstate Biotechnology Inc, Billerica, Mass.) and malondialdehyde (MDA, 1:100, Alpha Diagnostic International Inc, San Antonio, Tex.), and markers for endoplasmic reticulum (ER) stress, i.e., phosphorylated pancreatic ER kinase (PERK, 1:5, Santa Cruz Biotechnology, Santa Cruz, Calif.), and phosphorylated eukaryotic initiation factor 2α (eIF2α, 1:50, Stressgen Bioreagents Corp, Norwalk, Conn.).
Stained sections were examined under light microscopy (Zeiss Axioskop, Germany). The cortical area of the kidney was digitized under ×10 objective low power with a Sony 3CCD color video camera and a meta imaging series software (Molecular Devices, Downingtown, Pa.). The area of positively stained tubules and glomeruli was measured and expressed as the percentage of total cortical area. The intensity of the staining was also assessed using the color differentiation program.

A further data set deals with MMP-2. The data set is described as follows: Zymography of aortic extracts. Conditions: PPS-treated WHHL rabbits, 75 days HC-diet. It counts as in vivo, rabbit. The procedure:
as §1

The subject of data set [2] is MCP-1, RANTES, CXCL1, MIP-2, ICAM-1, and iNOS mRNA. Nature of the data set: TNFα induced pro-inflammatory gene expression in proximal tubular cell line, real-time PCR. Conditions: PPS 200 μg/ml for 1 hour before TNFα 10 ng/ml, RNA 4 hours later. In kind it is cell-based, mouse. The method, then:
A proximal tubular cell line obtained from mice transgenic for SV40 T antigen was grown in DMEM containing 10% FBS. For the measurement of TNFα-stimulated gene expression, 1×10^5 proximal tubular cells were transferred to each well of a 6-well-plate. After placing the cells in 0.1% FBS medium for 24 hours, 10 ng/ml of TNFα was added to test wells. Total RNA was isolated from all wells 4 hours later. MCP-1, RANTES, CXCL1, MIP-2, ICAM-1, and iNOS mRNA levels were determined by real-time PCR as described above and corrected by β-actin mRNA levels. TNFα stimulated MCP-1 and RANTES production and release into the medium was measured in TNFα (10 ng/ml) treated and control cells at 24 hours. The amount of MCP-1 or RANTES in the medium was measured by ELISA (Invitrogen Corporation (Carlsband, Calif.).
To determine the effect of PPS on TNFα induced upregulation of proinflammatory genes, proximal tubular cells were pre-treated with PPS (200 μg/ml) for 1 hour before the addition of TNFα (10 ng/ml). MCP-1, RANTES, CXCL1, MIP-2, ICAM-1, and iNOS mRNA levels were determined 4 hours later by real-time PCR. MCP-1 and RANTES production was also measured.

For a further data set, the system named is IκB. The data set is described as follows: TNFα stimulated IκB phosphorylation in proximal tubular cells, Western-blot. The conditions noted are these: proximal tubular cells treated with PPS (400 μg/ml, ½ hour) before TNFα 10 ng/ml. It counts as cell-based, mouse. The method, then:
The activation of NF-κB and mitogen activated protein kinases including p38, JNK (Jun N-terminal kinase), and ERK (extracellular signal regulated kinase) pathways play an essential role in proinflammatory actions of TNFα. Thus, it was examined whether PPS affected the phosphorylation of IκB, ERK, p38, and JNK by TNFα. Proximal tubular cells were allowed to grow to 70% confluency in […] petri-dish. Cell lysates were collected before or 15, 30, 60, and 120 minutes after TNFα treatment (10 ng/ml). Cells in some dishes were pre-incubated with PPS (400 μg/ml) for ½ hour before exposure to TNFα. The levels of phosphorylated IκB, ERK, p38, and JNK were determined by Western-blots. Briefly, equal amounts of protein samples (10-20 μg/lane) were loaded onto SDS-PAGE gels. After electrophoresis, proteins were transferred to nitrocellulose membranes and blotted with antibody against phosphorylated IκB, ERK, p38, or JNK (Cell signaling, Boston, Mass.). After the first analysis, the membranes were stripped to re-probe with antibody against total IκB, ERK, p38 or JNK, and ERK and finally with antibody against β-actin (Cell signaling, Boston, Mass.).

Protocol for WHHL rabbits: 3-month-old female WHHL rabbits, obtained from the Institute for Experimental Animals, Kobe University School of Medicine (Shiomi M, et al., Arterioscler Thromb 1994; 14: 931-937), were fed a standard diet supplemented with 0.5% cholesterol for 45 days. […] Twenty rabbits with established lesions were randomized into two groups, one (PPS group) receiving PPS (30 mg/kg BW daily) added to the drinking water, and the other (Control group) receiving tap water for the next 30 days. […] After 30 days, the rabbits were anesthetized with ketamine hydrochloride and xylazine (60 mg and 6 mg/kg BW, respectively), and exsanguinated. Five from each group were perfusion-fixed with 4% phosphate-buffered formaldehyde solution through the femoral vein.

For pentosan polysulfate [PPS], in the data set with WHHL rabbits, the bleeding entry was “not observed”. The “Net MMP-2/MMP-9 activity, reduction compared to water-treated animals” value with MMP-2/MMP-9 was 27.74±4.32%. For the same substance, in data set [1], the “number of nuclei stained positively for phosphorylated NF-κB (p65 (Ser276))” value was “noticeably reduced”. The “MMP-2 activity in aortic extracts” value in the data set on MMP-2 is given as “significantly increased”. Further, the “TNFα stimulation of MCP-1, RANTES, CXCL-1, MIP-2, ICAM-1 and iNOS mRNA expression” value in data set [2] was “largely prevented”. Besides, the “decrease in the levels of IκB phosphorylation” value in the data set on IκB was 40-60%.
